From PubChem BioAssay AID1053123 (Broad Institute, 2014) come the findings set out here.

The AC50 is the concentration giving half of the maximal activity seen.

The test system of this test is CHO ER-LucT cells, luciferase glycosylation gel shift, 24 h. Kind of test: luciferase glycan loss by western gel shift – CHO ER-LucT cells, western blot, cherry-picked, dose response (AID 1053123). On the technique in general: In EMSA bound probe runs differently from free probe, usually more slowly.

Take `Cc1cnc(NC(=O)c2cc(S(=O)(=O)N(C)C)ccc2N2CCCC2)s1`: the AC50 was 7640 nM.

For `Cc1cnc(NC(=O)c2cc(S(=O)(=O)N(C)C)ccc2N2CCC2)s1`, the AC50 was 10500 nM. The value for `Cc1cnc(NC(=O)c2cc(S(=O)(=O)N3CCOCC3)ccc2N2CCCC2)s1` was 950 nM. Take `Cc1cnc(NC(=O)c2cc(S(=O)(=O)N3CCCC3)ccc2N2CCCC2)s1`: the AC50 is 2520 nM. For the molecule `Cc1csc(NC(=O)c2cc(S(=O)(=O)N(C)C)ccc2N2CCCC2)n1`, the AC50 is 395 nM.
